# Patent US20260209823A1, “KINASE/PHOSPHATASE SUBSTRATE ANALYSIS AND COMPOSITIONS USING SPECTRALLY ENCODED MICROBEADS” (CZ Biohub SF, LLC, priority 2022, published 2026)
# Non-standard residues stand in square brackets, D forms with d. No end group written: not given here. pS = N[C@@H](COP(=O)(O)O)C(=O)O
# System: Protein phosphatase 1 (PP1)
# Assay: Bead-based multiplexed phosphatase activity assay (pIMAGO detection on spectrally encoded beads)
# Format: biochemical
# Settings: beads incubated with PP1 versus buffer only
# Procedure: FIG. 2A-B: Overview and example data from bead-based multiplexed phosphatase activity assay. A) Experimental setup of phosphatase assay. Beads with indicated peptides are incubated with either PP1 (top) or Buffer only (bottom). The beads are washed and the phopsphorylation status of the peptides on the beads is detected using pImago. The beads are analyzed using a microscope capable of exciting beads with UV light and then identifying the spectral code embedded within each bead. B) Preliminary data showing the effect of PP1 phosphatase treatment on the phosphorylation status of the TSFFXGISPIEEEAH peptide (X indicates phosphorylated Serine).
# An assay to measure dephosphorylation is performed by incubating the (phospho) substrate peptides, e.g., synthesized directly on the encoded beads, with a phosphatase of interest. […] These images can then be analyzed using open-source image analysis software, e.g., Harink et al., PLOS ONE 2019, to identify the code (and thus the peptide sequence) and amount of phosphorylation associated with each bead. The ratio of phosphorylation detected between a control reaction in the absence of the phosphatase and in the presence of the phosphatase allows determination of how efficiently different peptide sequences are dephosphorylated. […]
sequence,measurement,value
TSFFXGISPIEEEAH (TSFF[pS]GISPIEEEAH),pIMAGO signal (phosphorylation status of bead-bound peptide) after PP1 treatment,loss of the signal
